# Test results: BindingDB's records for doi:10.1021/jm0204441 (The Danish University of Pharmaceutical Sciences, 2003)
# Experiment: Electrophysiological data on Xenopus oocytes, expressing homomeric kainate receptor (GluR5)
smiles,measurement,value
CC(C)(C)c1s[nH]c(=O)c1C[C@H](N)C(=O)O [2-Amino-3-(5-tert-butyl-3-hydroxy-isothiazol-4-yl)-propionic acid],EC50,100 nM
